Data taken from US11932656B1, “Thieno[2,3-d]pyrimidines as COX-2 inhibitors” (KING FAISAL UNIVERSITY, priority 2023, dated 2024).

Assays:
human recombinant COX-2 = molecular target: T1, human recombinant COX-2 (Homo sapiens, UniProt P35354); assay: COX Inhibitor Screening Assay, COX-2 (EIA of PGF2α); assay type: biochemical; conditions: for IC50: human recombinant COX-2, Cayman COX inhibitor screening assay kit; for SI (selectivity index, COX-1 IC50/COX-2 IC50): ratio COX-1 IC50/COX-2 IC50; for selective inhibition against COX-2: statement in words, COX-2 versus COX-1
T1 construct: purchased Cayman Chemical, USA 560131
T1 sequence (P35354 18-604): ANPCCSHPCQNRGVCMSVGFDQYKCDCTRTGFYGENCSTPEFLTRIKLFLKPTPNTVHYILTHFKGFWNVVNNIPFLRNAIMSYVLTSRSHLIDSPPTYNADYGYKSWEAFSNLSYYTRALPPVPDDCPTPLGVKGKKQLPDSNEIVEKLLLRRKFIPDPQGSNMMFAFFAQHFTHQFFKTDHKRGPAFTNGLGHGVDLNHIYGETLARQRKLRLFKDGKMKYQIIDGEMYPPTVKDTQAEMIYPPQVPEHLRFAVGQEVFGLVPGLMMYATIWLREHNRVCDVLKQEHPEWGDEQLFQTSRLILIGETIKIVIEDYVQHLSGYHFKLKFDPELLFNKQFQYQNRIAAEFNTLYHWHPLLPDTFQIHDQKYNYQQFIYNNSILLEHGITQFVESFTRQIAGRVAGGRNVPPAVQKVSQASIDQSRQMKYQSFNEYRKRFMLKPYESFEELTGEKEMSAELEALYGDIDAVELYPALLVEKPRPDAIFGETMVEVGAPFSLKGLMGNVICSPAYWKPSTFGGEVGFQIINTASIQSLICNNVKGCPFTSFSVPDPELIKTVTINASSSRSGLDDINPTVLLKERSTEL
Excerpt: (§1) 2-Butanone, ethylcyanoacetate (≥98%), dimethylformamide (≥99.5%), ethanol (≥99%), n-hexane, cyanamide and sulphur (≥99.5%) were bought from Acros Chemical (USA). Diethylamine, sodium sulphate anhydrous and analytical grade NaOH pellets were bought from Fisher Scientific (UK). 1,4-dioxane, concentrated HCl, ethyl acetate, hexane, chloroform, 4-fluorobenzoyl chloride (98%) , 4-methoxyphenyl acetonitrile (≥97%), 4-fluorophenyl acetonitrile (≥99%), and 2-(trifluoromethyl)benzoyl chloride were bought from Aldrich Chemicals. TLC Silica gel 60 F254 was obtained from Merck, USA. COX inhibitor screening assay kit (Item no. 560131) was procured from Cayman Chemical, USA.
(§2) The COX (ovine) Inhibitor Screening Assay was performed mainly to determine the selective inhibition of tested compounds (4a, 4b, 5a, 5b) towards the ovine COX-1 and human recombinant COX-2 isoenzymes. The addition of arachidonic acid (AA) helped to convert the COX component into PGG2, followed by reduction of PGG2 into PGH2. The following addition of SnCl2 converted PGH2 into PGF2α. The assay directly measures the PGF2α0 via enzyme immunoassay (EIA) using a broadly specific antiserum that bound to all PG tracers. Depending on the tested compounds inhibitory effect, the concentration of PGF2α in each well varied and was inversely proportional to the amount of PG tracers that was able to bind to the antiserum. PG tracers-antiserum complex was left to bind to the mouse monoclonal anti-rabbit antibody that has been coated to the well during the 18 hours incubation. Ellman's reagent was added to give distinct yellow coloration to the products from this enzymatic reaction, which absorbed strongly at 412 nm. The intensity of the color was proportional to the amount of PG tracers-antiserum complex bound to the well, which was inversely proportional to the concentration of PGF2α present.
(§3) The inhibitory activity of tested compounds was determined based on IC50 values whereas the selectivity was based on their selectivity indices (SI), which defined as COX-1 IC50/COX-2 IC50. In the assay system, indomethacin was used as non-selective COX inhibitor standard while NS-398 was used as COX-2 selective inhibitor standard.

ovine COX-1 = molecular target: T2, ovine COX-1 (Ovis aries, UniProt P05979); assay: COX (ovine) Inhibitor Screening Assay, COX-1 (EIA of PGF2α); assay type: biochemical; conditions: Cayman COX inhibitor screening assay kit
T2 construct: purchased Cayman Chemical, USA 560131
T2 sequence (P05979 25-600): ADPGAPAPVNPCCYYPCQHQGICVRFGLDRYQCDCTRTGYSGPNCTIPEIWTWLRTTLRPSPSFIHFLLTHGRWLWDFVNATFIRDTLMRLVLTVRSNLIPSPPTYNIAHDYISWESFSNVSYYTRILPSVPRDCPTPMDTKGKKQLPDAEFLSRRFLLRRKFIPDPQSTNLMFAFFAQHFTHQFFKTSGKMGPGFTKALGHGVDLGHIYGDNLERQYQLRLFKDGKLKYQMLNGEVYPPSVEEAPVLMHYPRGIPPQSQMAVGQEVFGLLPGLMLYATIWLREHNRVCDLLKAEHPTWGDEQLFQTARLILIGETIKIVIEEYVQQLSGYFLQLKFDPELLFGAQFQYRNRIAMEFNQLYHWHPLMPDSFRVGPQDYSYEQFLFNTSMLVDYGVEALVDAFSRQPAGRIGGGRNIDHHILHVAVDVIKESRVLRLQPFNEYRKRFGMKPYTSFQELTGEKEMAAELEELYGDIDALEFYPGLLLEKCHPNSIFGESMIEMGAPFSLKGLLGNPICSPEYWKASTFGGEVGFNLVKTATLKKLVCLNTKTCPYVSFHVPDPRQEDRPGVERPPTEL
Excerpt: as §1, §2, §3

Row | IC50 (human recombinant COX-2) [µM] | SI (selectivity index, COX-1 IC50/COX-2 IC50) (human recombinant COX-2) | selective inhibition against COX-2 (human recombinant COX-2) | IC50 (ovine COX-1) [µM] | SMILES
1 | 42.2 | 4.81 | mild selective inhibition | 203 | Cc1sc2nc(Cc3ccc(F)cc3)[nH]c(=O)c2c1C [Compound 4a, 2-(4-Fluorobenzyl)-5,6-dimethylthieno[2,3-d]pyrimidin-4(3H)-one]
2 | 143 | 4.11 | mild selective inhibition | 586 | COc1ccc(Cc2nc3sc(C)c(C)c3c(=O)[nH]2)cc1 [Compound 4b, 2-(4-Methoxybenzyl)-5,6-dimethylthieno[2,3-d]pyrimidin-4(3H)-one]
3 | 103 | 1.08 | mild selective inhibition | 112 | Cc1sc2nc(NC(=O)c3ccc(F)cc3)[nH]c(=O)c2c1C [Compound 5a, N-(5,6-Dimethyl-4-oxo-3,4-dihydrothieno[2,3-d]pyrimidin-2-yl)-4-fluorobenzamide]
4 | 189 | 0.12 | mild selective inhibition | 21.8 | Cc1sc2nc(NC(=O)c3ccccc3C(F)(F)F)[nH]c(=O)c2c1C [Compound 5b, N-(5,6-dimethyl-4-oxo-3,4-dihydrothieno[2,3-d]pyrimidin-2-yl)-2-(trifluoromethyl)benzamide]
